Laboratory results reported in patent US10927096B2, “Ester substituted ion channel blockers and methods for use” (Nocion Therapeutics, Inc., priority 2019, dated 2021).

How the values were obtained:
NaV1.7 = biological target: T1, NaV1.7 (Homo sapiens, UniProt Q15858); experiment: Whole cell patch clamp, internal block of NaV1.7 current; type: cell-based; conditions: % inhibition at 1 μM test concentration, compound in internal solution, manual whole cell patch clamp
T1 construct: expressed in transfected cells; host or cells: HEK293, tetracycline-inducible
T1 sequence (Q15858 whole entry): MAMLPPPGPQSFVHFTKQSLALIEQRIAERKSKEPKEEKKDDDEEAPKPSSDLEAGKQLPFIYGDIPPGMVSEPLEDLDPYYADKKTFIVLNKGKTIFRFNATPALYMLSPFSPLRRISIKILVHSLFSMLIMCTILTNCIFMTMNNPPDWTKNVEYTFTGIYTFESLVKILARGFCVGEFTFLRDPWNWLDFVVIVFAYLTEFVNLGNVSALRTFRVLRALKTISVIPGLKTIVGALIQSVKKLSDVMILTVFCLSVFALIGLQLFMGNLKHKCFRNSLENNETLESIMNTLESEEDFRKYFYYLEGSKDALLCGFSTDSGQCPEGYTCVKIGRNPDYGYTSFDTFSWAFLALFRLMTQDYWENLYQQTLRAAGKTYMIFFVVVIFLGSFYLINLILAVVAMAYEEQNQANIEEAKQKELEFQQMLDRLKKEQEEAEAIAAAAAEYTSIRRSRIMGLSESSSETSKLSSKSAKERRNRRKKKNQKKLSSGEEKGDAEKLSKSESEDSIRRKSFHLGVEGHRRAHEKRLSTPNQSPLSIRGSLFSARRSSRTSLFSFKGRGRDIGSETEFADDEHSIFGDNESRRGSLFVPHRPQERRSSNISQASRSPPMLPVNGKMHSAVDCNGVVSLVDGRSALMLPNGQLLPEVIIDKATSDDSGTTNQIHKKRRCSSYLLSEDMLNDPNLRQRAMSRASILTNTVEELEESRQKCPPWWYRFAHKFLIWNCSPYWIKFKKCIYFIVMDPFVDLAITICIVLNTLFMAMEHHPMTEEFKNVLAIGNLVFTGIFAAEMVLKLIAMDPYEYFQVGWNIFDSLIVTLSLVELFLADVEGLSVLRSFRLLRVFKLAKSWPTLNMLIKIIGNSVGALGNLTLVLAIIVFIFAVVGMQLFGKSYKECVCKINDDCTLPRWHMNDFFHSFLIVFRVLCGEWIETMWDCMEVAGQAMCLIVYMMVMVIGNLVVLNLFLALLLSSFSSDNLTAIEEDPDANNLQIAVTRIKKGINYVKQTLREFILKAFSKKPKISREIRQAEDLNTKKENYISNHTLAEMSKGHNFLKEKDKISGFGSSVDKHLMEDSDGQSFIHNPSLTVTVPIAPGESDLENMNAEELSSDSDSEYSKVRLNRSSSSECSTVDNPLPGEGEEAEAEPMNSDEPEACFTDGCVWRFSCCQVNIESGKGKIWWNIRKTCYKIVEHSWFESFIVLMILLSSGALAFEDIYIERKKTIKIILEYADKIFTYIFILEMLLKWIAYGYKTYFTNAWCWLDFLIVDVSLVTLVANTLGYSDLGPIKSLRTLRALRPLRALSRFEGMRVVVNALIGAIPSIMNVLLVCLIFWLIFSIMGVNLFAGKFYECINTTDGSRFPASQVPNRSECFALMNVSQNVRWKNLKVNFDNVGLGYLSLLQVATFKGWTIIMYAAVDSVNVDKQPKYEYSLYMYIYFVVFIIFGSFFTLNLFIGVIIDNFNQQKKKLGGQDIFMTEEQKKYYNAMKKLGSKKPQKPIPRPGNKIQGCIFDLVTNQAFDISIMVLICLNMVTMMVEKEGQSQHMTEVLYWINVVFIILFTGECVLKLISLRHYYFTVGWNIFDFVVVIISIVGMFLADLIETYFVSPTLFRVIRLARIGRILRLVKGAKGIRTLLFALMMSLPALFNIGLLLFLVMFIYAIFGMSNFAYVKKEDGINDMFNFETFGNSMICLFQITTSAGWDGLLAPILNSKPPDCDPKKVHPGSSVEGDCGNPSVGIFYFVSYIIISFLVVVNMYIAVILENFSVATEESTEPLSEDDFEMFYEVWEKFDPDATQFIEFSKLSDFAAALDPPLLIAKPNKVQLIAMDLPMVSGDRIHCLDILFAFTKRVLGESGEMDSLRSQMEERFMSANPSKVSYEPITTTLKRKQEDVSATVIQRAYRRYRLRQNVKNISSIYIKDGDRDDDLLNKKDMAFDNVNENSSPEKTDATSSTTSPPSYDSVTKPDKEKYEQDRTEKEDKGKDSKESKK
Description: NaV1.7 was expressed upon induction with tetracycline. Cells were cultured in DMEM containing 10% dialyzed Fetal Bovine Serum (VWR, Radnor, Pa.), 1% Glutamax (VWR, Radnor, Pa.), 1% Penicillin-Streptomycin (VWR, Radnor, Pa.), 100 mg/L Hygromycin (Thermo Fisher Scientific, Waltham, Mass. and 5 mg/L Blasticidin (Alfa Aesar, Haverhill, Mass.). Cells were grown and maintained at 37° C. in a humidified environment containing 10% C02 in air. Cells were detached from the culture flask for passage and harvested using 0.05% Trypsin-EDTA (Thermo Fisher Scientific, Waltham, Mass.). To induce NaV1.7, cells were induced with tetracycline (0.1-1 μg/mL, IBI Scientific, Peosta, Iowa) the day before recording and plated onto 24-well plates. Cells were washed with DPBS (VWR, Radnor, Pa.), trypsinized and then triturated five times in 10 mL of growth media to break apart cell aggregates. For one 24-well plate, 2 mL of cell suspension was mixed with 23 mL of fresh growth media and 0.1-1 μg/mL tetracycline added. 1 ml of mixed media with cells was then added to each well of a 24-well plate, with a 12 mm coverslip already placed in the bottom of the well. Cells were then incubated in 37° C. and 10% CO2 overnight.
The intracellular solution contained the following (in mM) CsCl 135, NaCl 10, EGTA 10, HEPES 10, MgCl2 2, adjusted to pH 7.2 with CsOH. The external solution was a normal Ringer solution containing (in mM) NaCl 155, HEPES 10, glucose 10, KCl 3.5, CaCl2 1.5, MgCl2 1 adjusted to pH 7.4 with NaOH. CsCl is from Alfa Aesar, Haverhill, Mass. All other chemicals are from Sigma-Aldrich, St. Louis, Mo. In order to test the degree of internal block by test compounds the compounds were dissolved in internal solution at the indicated test concentration. […] In order to test the degree of external block by test compounds the compounds were dissolved in external solution at the indicated test concentration.
18-24 hours after cells were induced with tetracycline, coverslips were placed into a chamber filled with Normal Ringer solution at room temperature and the chamber placed on a microscope. Pipettes were pulled from borosilicate glass on a P97 puller (Sutter Instrument, Novato, Calif.) and polished with a MF-830 Microforge (Narishige International USA, Inc, Amityville, N.Y.) to have a resistance of 1.5-2.5 MΩ when filled with CsCl internal solution at room temperature. Healthy cells (those that are round and translucent with no visible blemishes) were chosen for seal formation. A seal was formed between the pipette and the cell, and a brief pulse of suction was used to “break in” and establish the whole-cell configuration. The membrane potential was held at −100 mV before the voltage protocol began. Only cells with series resistance between 1.5-5 MΩ were retained for analysis. The voltage protocol was as follows: Cells were held at −100 mV for 12 ms followed by a hyperpolarizing step to −105 mV for 12 ms to monitor the leak. Cells were then stepped back to −100 mV for 40 ms. Cells were then depolarized to −20 mV for 10 ms and then returned to −100 mV for 26 ms (The FIGURE).
Once the recording was started, the voltage protocol was run at 30 second intervals for 5 minutes to get a stable baseline. This was followed by four 30-second periods of 5 Hz stimulation of the same voltage protocol separated by 1 minute of rest which was then followed by 0.33 Hz stimulation after the last train. Currents were recorded using PatchMaster software with Heka EPC10 (HEKA Electronics, Lambrecht, Germany). Only cells with inward current amplitudes at −20 mV between 400 pA and 4 nA were accepted. In addition, cells having leak currents greater than 10% of their current amplitudes were discarded.
The data was plotted using the Patchmaster software (HEKA Electronics, Lambrecht, Germany) and analyzed by plotting the minimum current during the voltage step to −20 mV (peak inward current) as a function of time. […]

[1] = PAMPA membrane permeability assay; type: physicochemical; conditions: pH 7.4 buffer, GIT lipid, 4 hours incubation
Description: The PAMPA assay (pION, Inc., Woburn Mass.) was used to determine the ability of compounds of the invention to cross an artificial lipid membrane by passive diffusion. Test compounds were dissolved in DMSO (10 mM) and diluted 200-fold in buffer (pION Inc., pH 7.4) to provide 50 uM stock solutions. Buffer (150 μL) was added to a UV blank plate and stock solutions (150 μL) were transferred to a UV reference plate. The blank and reference spectrum were read using a spectrophotometer. Stock solutions (200 μL) were added to the donor plate of the PAMPA sandwich plate and an accept plate painted with GIT lipid (pION Inc, 5 μL) was placed on top. Buffer (200 μL) was added to the acceptor plate and the PAMPA sandwich plate was incubated for 4 hours. Aliquots (150 μL) from the acceptor plate were added to a UV plate and read as acceptor spectrum. Aliquots (150 μL) of the donor solutions were added to a UV analysis plate and read as donor spectrum. The permeability coefficient of test compounds was calculated using PAMPA Explorer™ software (version 3.5.0.4) based on the AUC of the reference plate, the donor plate, and the acceptor plate.
The PAMPA permeability results (10^−6 cm/s) of representative compounds are reported as “+” (<0.1 10^−6 cm/s), “++” (0.1-2.0 10^−6 cm/s), “+++” (2.0-10.010^−6 cm/s) or “++++” (>10.0 10^−6 cm/s).

SMILES	NaV1.7 Intracellular Inhibition (NaV1.7)	PAMPA (10^−6 cm/s) [1]
CCCCOC(=O)C1CCC[N+](CC(=O)Nc2c(C)cccc2C(=O)OC)(Cc2ccccc2)C1.[Br-] (mixture of isomers) [Compound 14]	++ (70-30%)	+ (<0.1 10^−6 cm/s)
CCCCOC(=O)C1CCC[N+](CC)(CC(=O)Nc2c(C)cccc2C(=O)OC)C1.[I-] (mixture of isomers) [Compound 15]	++ (70-30%)	+ (<0.1 10^−6 cm/s)
CCOC(=O)C1CCC[N+](CC(=O)Nc2c(C)cccc2C(=O)OC)(Cc2ccccc2)C1 (mixture of isomers) [Compound 16]	+++ (90-70%)	+ (<0.1 10^−6 cm/s)
CC[N+]1(CC(=O)Nc2c(C)cccc2C(=O)OC)CCCC(C(=O)OC2CCCCC2)C1 (mixture of isomers) [Compound 27]	++ (70-30%)	+ (<0.1 10^−6 cm/s)
CCCNC(=O)C1CCC[N+](CC(=O)Nc2c(C)cccc2C(=O)OC)(Cc2ccccc2)C1 (mixture of isomers) [Compound 28]	++ (70-30%)	+++ (2.0-10.010^−6 cm/s)
CNC(=O)C1CCC[N+](CC(=O)Nc2c(C)cccc2C(=O)OC)(Cc2ccccc2)C1 (mixture of isomers) [Compound 31]	++ (70-30%)	+ (<0.1 10^−6 cm/s)
COC(=O)c1cccc(C)c1NC(=O)C[N+]1(Cc2ccccc2)CCCCCC1 [Compound 1]	++++ (>90%)	+ (<0.1 10^−6 cm/s)
CCOC(=O)c1cccc(C)c1NC(=O)C[N+]1(Cc2ccccc2)CCCCCC1 [Compound 2]	++++ (>90%)	+ (<0.1 10^−6 cm/s)
COC(=O)c1cccc(C)c1NC(=O)C[N+]1(Cc2ccccc2)CCCCC1.[Br-] [Compound 3]	++ (70-30%)	+ (<0.1 10^−6 cm/s)
CCOC(=O)c1cccc(C)c1NC(=O)C[N+]1(Cc2ccccc2)CCCCC1.[Br-] [Compound 4]	+++ (90-70%)	+ (<0.1 10^−6 cm/s)
COC(=O)c1cccc(C)c1NC(=O)C[N+]1(Cc2ccccc2)CCCC1 [Compound 5]	++ (70-30%)	+++ (2.0-10.010^−6 cm/s)
CCCOC(=O)c1cccc(C)c1NC(=O)C[N+]1(Cc2ccccc2)CCCCCC1.[Br-] [Compound 6]	+++ (90-70%)	+ (<0.1 10^−6 cm/s)
Cc1cccc(C(=O)OC(C)C)c1NC(=O)C[N+]1(Cc2ccccc2)CCCCCC1.[Br-] [Compound 7]	++++ (>90%)	+ (<0.1 10^−6 cm/s)
CCOC(=O)c1cccc(C)c1NC(=O)C[N+]1(Cc2ccccc2)CCCC1.[Br-] [Compound 9]	+++ (90-70%)	+ (<0.1 10^−6 cm/s)
CC[N+]1(CC(=O)Nc2c(C)cccc2C(=O)OC)CCCC(C(=O)OCC(C)C)C1.[I-] (stereo not drawn) [Compound 23]	+++ (90-70%)	+ (<0.1 10^−6 cm/s)
CCCOC(=O)C1CCC[N+](CC)(CC(=O)Nc2c(C)cccc2C(=O)OC)C1.[I-] (stereo not drawn) [Compound 26]	++ (70-30%)	+ (<0.1 10^−6 cm/s)
COC(=O)c1cccc(C)c1NC(=O)C[N+]1(Cc2ccccc2)CCCC(C(N)=O)C1.[Br-] (stereo not drawn) [Compound 30]	++ (70-30%)	+ (<0.1 10^−6 cm/s)
COC(=O)c1cccc(C)c1NC(=O)C[N+]1(Cc2ccccc2)CCCC(C(=O)NC(C)C)C1.[Br-] (stereo not drawn) [Compound 32]	++ (70-30%)	+ (<0.1 10^−6 cm/s)
CCNC(=O)C1CCC[N+](CC(=O)Nc2c(C)cccc2C(=O)OC)(Cc2ccccc2)C1.O=C([O-])C(F)(F)F (stereo not drawn) [Compound 33]	++ (70-30%)	++ (0.1-2.0 10^−6 cm/s)
COC(=O)c1cccc(C)c1NC(=O)C[N+]1(Cc2ccccc2)CCCC(C(=O)N2CCCCCC2)C1.[Br-] (stereo not drawn) [Compound 34]	++ (70-30%)	+ (<0.1 10^−6 cm/s)

Continued, values first:

NaV1.7 Intracellular Inhibition (NaV1.7)	PAMPA (10^−6 cm/s) [1]	SMILES
++ (70-30%)	+ (<0.1 10^−6 cm/s)	COC(=O)c1cccc(C)c1NC(=O)C[N+]1(Cc2ccccc2)CCCC(C(=O)N(C)C)C1 (mixture of isomers) [Compound 40]
++ (70-30%)	+ (<0.1 10^−6 cm/s)	COC(=O)c1cccc(C)c1NC(=O)C[N+]1(Cc2ccccc2)CCCC(C(=O)N2CCCC2)C1 (mixture of isomers) [Compound 43]
++ (70-30%)	+ (<0.1 10^−6 cm/s)	CC[N+]1(CC(=O)Nc2c(C)cccc2C(=O)OC)CCCC(C(=O)N2CCCC2)C1 (mixture of isomers) [Compound 54]
+++ (90-70%)	+ (<0.1 10^−6 cm/s)	CNC(=O)C[N+]1(CC(=O)Nc2c(C)cccc2C(=O)OC)CCCC(c2ccccc2)C1.[Br-] (mixture of isomers) [Compound 59]
+++ (90-70%)	+ (<0.1 10^−6 cm/s)	COC(=O)c1cccc(C)c1NC(=O)C[N+]1(CC(N)=O)CCCC(c2ccccc2)C1 (mixture of isomers) [Compound 61]
++ (70-30%)	+ (<0.1 10^−6 cm/s)	CCN(CC)C(=O)C[N+]1(CC(=O)Nc2c(C)cccc2C(=O)OC)CCCC(c2ccccc2)C1 (mixture of isomers) [Compound 62]
++ (70-30%)	+ (<0.1 10^−6 cm/s)	COC(=O)C[N+]1(CC(=O)Nc2c(C)cccc2C(=O)OC)CCCC(c2ccccc2)C1 (mixture of isomers) [Compound 64]
++++ (>90%)	+ (<0.1 10^−6 cm/s)	CC[N+]1(CC(=O)Nc2c(C)cccc2C(=O)OC)CCCC(c2ccccc2)C1 (mixture of isomers) [Compound 65]
++ (70-30%)	+++ (2.0-10.010^−6 cm/s)	COC(=O)c1cccc(C)c1NC(=O)C[N+]1(Cc2ccccc2)CCCC(C(=O)NCC(C)C)C1.[Br-] (stereo not drawn) [Compound 36]
+ (<30%)	+ (<0.1 10^−6 cm/s)	COC(=O)c1cccc(C)c1NC(=O)C[N+]1(Cc2ccccc2)CCCC(C(=O)NC2CCCC2)C1.[Br-] (stereo not drawn) [Compound 41]
